Experiments:
Type in all cases: in vivo
[1] = test system: Diabrotica balteata; assay: Diabrotica balteata (Corn Root Worm) artificial diet MTP test; conditions: 120 h, 200 ppm (concentration in well 18 ppm), L2 larvae, 5 days, larval mortality, growth regulation
[2] = test system: Spodoptera littoralis; assay: Spodoptera littoralis (Egyptian Cotton Leafworm) cotton leaf disc spray test; conditions: foliar, 72 h, 200 ppm spray on cotton leaf discs, L1 larvae, mortality, feeding behavior, growth regulation 3 DAT
[3] = test system: Heliothis virescens; assay: Heliothis virescens (Tobacco Budworm) egg test on artificial diet; conditions: 96 h, 200 ppm (concentration in well 18 ppm), eggs 0-24 h old on artificial diet, 4 days, egg mortality, larval mortality, growth regulation
[4] = test system: Plutella xylostella; assay: Plutella xylostella (Diamond Back Moth) artificial diet MTP test; conditions: 144 h, 200 ppm (concentration in well 18 ppm), L2 larvae, 6 days, larval mortality, growth regulation

Measured: pest or weed control at 200 ppm

CCc1cc(C(F)(C(F)(F)F)C(F)(F)C(F)(F)F)cc(C)c1NC(=O)c1cccc(NC(=O)c2ccc(F)cc2)c1OC (centres unmarked) [A1, N-[2-ethyl-4-(1,2,2,3,3,3-hexafluoro-1-trifluoromethylpropyl)-6-methylphenyl]-3-(4-fluorobenzoylamino)-2-methoxybenzamide]
≥ 80%: all assays above

COc1c(NC(=O)c2cccc(F)c2F)cccc1C(=O)Nc1c(Cl)cc(C(F)(C(F)(F)F)C(F)(F)C(F)(F)F)cc1Br (centres unmarked) [B22]
≥ 80%: all assays above

COc1c(NC(=O)c2cnccn2)cccc1C(=O)Nc1c(Cl)cc(C(F)(C(F)(F)F)C(F)(F)C(F)(F)F)cc1Br (centres unmarked) [B56]
≥ 80%: all assays above

COc1c(NC(=O)c2cc([N+](=O)[O-])ccc2Cl)cccc1C(=O)Nc1c(Cl)cc(C(F)(C(F)(F)F)C(F)(F)C(F)(F)F)cc1Br (centres unmarked) [B62]
≥ 80%: all assays above

COc1c(NC(=O)c2cc(C)ccc2Cl)cccc1C(=O)Nc1c(Cl)cc(C(F)(C(F)(F)F)C(F)(F)C(F)(F)F)cc1Br (centres unmarked) [B72]
≥ 80%: all assays above

COc1c(NC(=O)c2cc(Br)ccc2Cl)cccc1C(=O)Nc1c(Cl)cc(C(F)(C(F)(F)F)C(F)(F)C(F)(F)F)cc1Br (centres unmarked) [B83]
≥ 80%: all assays above

COc1c(NC(=O)c2ccc(C)c(Br)c2)cccc1C(=O)Nc1c(Cl)cc(C(F)(C(F)(F)F)C(F)(F)C(F)(F)F)cc1Br (centres unmarked) [B84]
≥ 80%: all assays above

COc1c(NC(=O)c2cccc([N+](=O)[O-])c2Br)cccc1C(=O)Nc1c(Cl)cc(C(F)(C(F)(F)F)C(F)(F)C(F)(F)F)cc1Br (centres unmarked) [B85]
≥ 80%: all assays above

COc1c(NC(=O)c2cc([N+](=O)[O-])cc([N+](=O)[O-])c2C)cccc1C(=O)Nc1c(Cl)cc(C(F)(C(F)(F)F)C(F)(F)C(F)(F)F)cc1Br (centres unmarked) [B86]
≥ 80%: all assays above

COc1c(NC(=O)c2cc(C)n(C)n2)cccc1C(=O)Nc1c(Cl)cc(C(F)(C(F)(F)F)C(F)(F)C(F)(F)F)cc1Br (centres unmarked) [B100]
≥ 80%: all assays above

COc1c(NC(=O)c2ccc(SC)cc2[N+](=O)[O-])cccc1C(=O)Nc1c(Cl)cc(C(F)(C(F)(F)F)C(F)(F)C(F)(F)F)cc1Br (centres unmarked) [B116]
≥ 80%: all assays above

COc1c(NC(=O)c2cn(C)nc2C#N)cccc1C(=O)Nc1c(Cl)cc(C(F)(C(F)(F)F)C(F)(F)C(F)(F)F)cc1Br (centres unmarked) [B117]
≥ 80%: all assays above

COc1c(NC(=O)c2ccc(C(F)(F)F)cc2SC)cccc1C(=O)Nc1c(Cl)cc(C(F)(C(F)(F)F)C(F)(F)C(F)(F)F)cc1Br (centres unmarked) [B125]
≥ 80%: [1] | [3] | [4]

COc1c(NC(=O)c2cnccc2C(F)(F)F)cccc1C(=O)Nc1c(Cl)cc(C(F)(C(F)(F)F)C(F)(F)C(F)(F)F)cc1Br (centres unmarked) [B126]
≥ 80%: all assays above

COc1c(NC(=O)c2cc([N+](=O)[O-])c(F)cc2Cl)cccc1C(=O)Nc1c(Cl)cc(C(F)(C(F)(F)F)C(F)(F)C(F)(F)F)cc1Br (centres unmarked) [B130]
≥ 80%: all assays above

COc1c(NC(=O)c2cn(C)nc2C(F)F)cccc1C(=O)Nc1c(Cl)cc(C(F)(C(F)(F)F)C(F)(F)C(F)(F)F)cc1Br (centres unmarked) [B131]
≥ 80%: all assays above

COc1c(NC(=O)c2cc(C)oc2C(F)(F)F)cccc1C(=O)Nc1c(Cl)cc(C(F)(C(F)(F)F)C(F)(F)C(F)(F)F)cc1Br (centres unmarked) [B144]
≥ 80%: all assays above

COc1cccc(F)c1C(=O)Nc1cccc(C(=O)Nc2c(Cl)cc(C(F)(C(F)(F)F)C(F)(F)C(F)(F)F)cc2Br)c1OC (centres unmarked) [B166]
≥ 80%: all assays above

COc1c(NC(=O)c2ncc(Cl)cc2Cl)cccc1C(=O)Nc1c(Cl)cc(C(F)(C(F)(F)F)C(F)(F)C(F)(F)F)cc1Br (centres unmarked) [B185]
≥ 80%: all assays above

COc1c(NC(=O)c2cc(Cl)ccc2F)cccc1C(=O)Nc1c(Cl)cc(C(F)(C(F)(F)F)C(F)(F)F)cc1Cl [E8]
≥ 80%: all assays above

COc1c(NC(=O)c2ccc(F)cc2F)cccc1C(=O)Nc1c(C)cc(C(F)(C(F)(F)F)C(F)(F)C(F)(F)F)cc1C (centres unmarked) [F9]
≥ 80%: all assays above

COc1c(NC(=O)c2cc(Cl)ccc2F)cccc1C(=O)Nc1c(C)cc(C(F)(C(F)(F)F)C(F)(F)C(F)(F)F)cc1C (centres unmarked) [F12]
≥ 80%: [1] | [2] | [3]

COCc1cc(C(F)(C(F)(F)F)C(F)(F)C(F)(F)F)cc(Cl)c1NC(=O)c1cccc(NC(=O)c2c(F)cc(F)cc2F)c1OC (centres unmarked) [H2]
≥ 80%: [1] | [3] | [4]

COCc1cc(C(F)(C(F)(F)F)C(F)(F)C(F)(F)F)cc(Br)c1NC(=O)c1cccc(NC(=O)c2ccc(C#N)cc2C)c1OC (centres unmarked) [I1]
≥ 80%: [1] | [3] | [4]

CCc1cc(C(F)(C(F)(F)F)C(F)(F)F)cc(C)c1NC(=O)c1cccc(NC(=O)c2c(F)cc(F)cc2F)c1OC [J3]
≥ 80%: [1] | [3] | [4]

CCc1cc(C(F)(C(F)(F)F)C(F)(F)F)cc(C)c1NC(=O)c1cccc(NC(=O)c2ccc(C#N)cc2C)c1OC [J4]
≥ 80%: [1] | [3] | [4]

Reference: patent publication US20120295907A1, “INSECTICIDAL COMPOUNDS” (SYNGENTA CROP PROTECTION, LLC, priority 2009, published 2012)
